Target: T1, SARM1 (50-724) (Homo sapiens, UniProt Q6SZW1)
T1 construct: Purified SARM1 (50-724) with a final concentration of 2 nM
T1 sequence (Q6SZW1 50-724): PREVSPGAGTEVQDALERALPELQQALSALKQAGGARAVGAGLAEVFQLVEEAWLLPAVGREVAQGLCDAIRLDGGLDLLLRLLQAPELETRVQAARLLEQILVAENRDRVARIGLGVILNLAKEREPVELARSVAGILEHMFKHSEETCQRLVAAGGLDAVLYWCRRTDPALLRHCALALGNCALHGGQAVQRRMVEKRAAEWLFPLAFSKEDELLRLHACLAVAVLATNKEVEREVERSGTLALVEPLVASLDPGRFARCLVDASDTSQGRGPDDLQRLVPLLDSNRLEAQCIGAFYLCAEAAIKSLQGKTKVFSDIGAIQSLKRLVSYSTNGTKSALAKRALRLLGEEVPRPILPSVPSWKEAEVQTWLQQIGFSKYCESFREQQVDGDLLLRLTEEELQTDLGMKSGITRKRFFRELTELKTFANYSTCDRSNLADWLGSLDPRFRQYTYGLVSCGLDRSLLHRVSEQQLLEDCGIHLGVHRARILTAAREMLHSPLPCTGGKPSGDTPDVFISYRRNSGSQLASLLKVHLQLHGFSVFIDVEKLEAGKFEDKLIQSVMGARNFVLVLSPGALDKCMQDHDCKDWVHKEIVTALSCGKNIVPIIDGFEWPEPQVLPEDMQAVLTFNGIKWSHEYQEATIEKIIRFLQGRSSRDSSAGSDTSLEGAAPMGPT
Experiment: SARM1 (50-724) enzymatic assay (NMN-activated NAD+ hydrolysis, LC-MS/MS readout)
Type: biochemical
Conditions: purified SARM1 (50-724) 2 nM, 200 μM NMN activator, 100 μM NAD+ substrate, 1 h at room temperature, read-out: IC50 (SARM1 inhibitory activity)
Method in brief: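 Purified human SARM1 (50-724), 2 nM final in DPBS, pre-incubated 15 min at RT with compound (1% DMSO), then started with 200 μM NMN activator and 100 μM NAD+. After 1 h at RT, quenched with 70% acetonitrile; analysed by LC-MS/MS.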

| SMILES | IC50 |
| --- | --- |
| CNCCN(C(=O)c1nc2cc(C)ccc2[nH]1)C1CCCC1 [Compound 63, N-cyclopentyl-5-methyl-N-(2-(methylamino)ethyl)-1H-benzo[d]imidazol-2-carboxamide] | ≥ 1000 nM |
| Cc1cnc2[nH]c(C(=O)N(C)C3CCCC3)c(CO)c2c1 [Compound 38, N-cyclopentyl-3-(hydroxymethyl)-N,5-dimethyl-1H-pyrrolo[2,3-b]pyridine-2-carboxamide] | ≥ 1000 nM |
| Cc1ccc2[nH]c(C(=O)N(C)c3ccccc3Cl)c(CO)c2c1 [Compound 6, N-(2-chlorophenyl)-3-(hydroxymethyl)-N,5-dimethyl-1H-indole-2-carboxamide] | 101 to 500 nM |
| CN(C(=O)c1nc2ccccc2o1)C1CCCC1 [Compound 56, N-cyclopentyl-N-methylbenzo[d]oxazole-2-carboxamide] | ≥ 1000 nM |
| Cc1cccc2c(CO)c(C(=O)N(C)C3CCCC3)[nH]c12 [Compound 39, N-cyclopentyl-3-(hydroxymethyl)-N,7-dimethyl-1H-indole-2-carboxamide] | ≥ 1000 nM |
| O=C(c1nc2c(Cl)c(-c3ccn[nH]3)ccc2[nH]1)N(CC1COC1)c1cccc(Cl)c1Cl [Compound 143] | ≥ 1000 nM |
| CN(C(=O)c1nc2c(S(C)(=O)=O)cccc2[nH]1)C1CCCC1 [Compound 99, N-cyclopentyl-N-methyl-4-(methylsulfonyl)-1H-benzo[d]imidazole-2-carboxamide] | ≥ 1000 nM |
| CN(C(=O)c1[nH]c2ccc(C(F)(F)F)cc2c1CO)C1CCCC1 [Compound 28, N-cyclopentyl-3-(hydroxymethyl)-N-methyl-5-(trifluoromethyl)-1H-indole-2-carboxamide] | 101 to 500 nM |
| Cc1ccc2[nH]c(C(=O)N(C)C3CCCC3)c(CN)c2c1 [Compound 68, 3-(aminomethyl)-N-cyclopentyl-N,5-dimethyl-1H-indole-2-carboxamide] | ≥ 1000 nM |
| Cc1ccc2[nH]c(C(=O)N(C)c3c(F)cccc3F)c(CO)c2c1 [Compound 2, N-(2,6-difluorophenyl)-3-(hydroxymethyl)-N,5-dimethyl-1H-indole-2-carboxamide] | 501 to 1000 nM |
| Cc1ccc2[nH]c(C(=O)N(C)CCC(C)C)c(CNc3ccccn3)c2c1 [Compound 88, N-isopentyl-N,5-dimethyl-3-((pyridin-2-ylamino)methyl)-1H-indole-2-carboxamide] | ≥ 1000 nM |
| COCCN(C(=O)c1nc2cc(C)ccc2[nH]1)C1CCCC1 [Compound 62, N-cyclopentyl-N-(2-methoxyethyl)-5-methyl-1H-benzo[d]imidazole-2-carboxamide] | 101 to 500 nM |
| CN(C(=O)c1nc2c([nH]1)C(=O)CCC2)C1CCCC1 [Compound 61, N-cyclopentyl-N-methyl-7-oxo-4,5,6,7-tetrahydro-1H-benzo[d]imidazole-2-carboxamide] | ≥ 1000 nM |

Other lines, results leading:

| IC50 | SMILES |
| --- | --- |
| ≤ 100 nM | O=C(c1nc2cc(C(F)(F)F)ccc2[nH]1)N(CC1CS(=O)(=O)C1)c1cccc(Cl)c1Cl [Compound 180, N-(2,3-dichlorophenyl)-N-((1,1-dioxidothietan-3-yl)methyl)-5-(trifluoromethyl)-1H-benzo[d]imidazole-2-carboxamide] |
| 101 to 500 nM | CC1(O)CC(N(C(=O)c2nc3cc(C(F)(F)F)ccc3[nH]2)c2cccc(F)c2Cl)C1 (stereo not drawn) [Compound 239, N-(2-chloro-3-fluorophenyl)-N-(3-hydroxy-3-methylcyclobutyl)-5-(trifluoromethyl)-1H-benzo[d]imidazole-2-carboxamide] |
| ≤ 100 nM | O=C(c1nc2cc(C(F)(F)F)ccc2[nH]1)N(CC(O)CO)c1cccc(Cl)c1Cl (racemic) [Compound 131, N-(2,3-dichlorophenyl)-N-(2,3-dihydroxypropyl)-5-(trifluoromethyl)-1H-benzo[d]imidazole-2-carboxamide] |
| ≤ 100 nM | CS(=O)(=O)CCCN(C(=O)c1nc2cc(C(F)(F)F)ccc2[nH]1)c1cccc(Cl)c1Cl [Compound 129, N-(2,3-dichlorophenyl)-N-(3-(methylsulfonyl)propyl)-5-(trifluoromethyl)-1H-benzo[d]imidazole-2-carboxamide] |
| ≤ 100 nM | Cc1cccc(N(C)C(=O)c2nc3cc(C(F)(F)F)ccc3[nH]2)c1Cl [Compound 125, N-(2-chloro-3-methylphenyl)-N-methyl-5-(trifluoromethyl)-1H-benzo[d]imidazole-2-carboxamide] |
| 101 to 500 nM | O=C(c1nc2cc(C(F)(F)F)ccc2[nH]1)N(CCC1CNC1)c1cccc(Cl)c1Cl [Compound 134, N-(2-(azetidin-3-yl)ethyl)-N-(2,3-dichlorophenyl)-5-(trifluoromethyl)-1H-benzo[d]imidazole-2-carboxamide] |
| ≤ 100 nM | O=C(c1nc2cc(C(F)(F)F)ccc2[nH]1)N(CCO)c1nccc(Cl)c1Cl [Compound 100, N-(3,4-dichloropyridin-2-yl)-N-(2-hydroxyethyl)-5-(trifluoromethyl)-1H-benzo[d]imidazole-2-carboxamide] |
| ≤ 100 nM | CC(C)(O)CCN(C(=O)c1nc2cc(C(F)(F)F)ccc2[nH]1)c1cccc(Cl)c1Cl [Compound 198, N-(2,3-dichlorophenyl)-N-(3-hydroxy-3-methylbutyl)-5-(trifluoromethyl)-1H-benzo[d]imidazole-2-carboxamide] |

From patent US20260265195A1, “SARM1 MODULATORS, PREPARATIONS, AND USES THEREOF” (SIRONAX LTD, priority 2022, published 2026)
